In patent EP0185130A1, “5-Alkoxy-2,4,6-triodo or tribromo-isophthalic-acid derivatives, process for their preparation and X-ray contrast agents containing them” (BRACCO INDUSTRIA CHIMICA Società per Azioni, priority 1984, dated 1986):
Converted amounts (≈) assume the structure as drawn.

Assay: Water solubility
Type: physicochemical
Details: bei 25 °C

Question: Which Wasserlöslichkeit does the source give for `CC(Oc1c(I)c(C(=O)NC(CO)CO)c(I)c(C(=O)NC(CO)CO)c1I)C(=O)N(C)CC(O)C(O)CO` (centres unmarked) [Beispiel 22, (5-(1(N-Methyl-N-2,3,4-trihydroxybutyl)aminocarbonyl)ethoxy)-2,4,6-trijodisophthalsäure-bis(1,3-dihydroxyisopropylamid)] here?
Answer: The Wasserlöslichkeit was > 100 % (g/v).

Same assay, conditions: result in words, no temperature stated

Question: For `O=C(NC(CO)CO)c1c(I)c(OCC(O)CO)c(I)c(C(=O)NC(CO)CO)c1I` (centres unmarked) [Beispiel 8, 5-(2,3-Dihydroxypropyl)oxy-2,4,6-trijodisophthalsäure-bis(1,3-dihydroxy-isopropylamid)], which Wasserlöslichkeit is on record?
Answer: Its Wasserlöslichkeit is “löslich in Wasser”.

Question: Which Wasserlöslichkeit does the source give for `O=C(NC(CO)CO)c1c(I)c(OC(CO)CO)c(I)c(C(=O)NC(CO)CO)c1I` [Beispiel 9, 5-(1,3-Dihydroxyisopropyl)oxy-2,4,6-trijodisophthalsäure-bis(1,3-di-hydroxyisopropylamid)] here?
Answer: The Wasserlöslichkeit was “in Wasser leicht löslich”.

Question: Which Wasserlöslichkeit does the source give for `O=C(NC(CO)CO)c1c(I)c(OCC(CO)(CO)CO)c(I)c(C(=O)NC(CO)CO)c1I` [Beispiel 10, 5-(2,2-Bis-(hydroxymethyl)-3-hydroxypropyl)oxy-2,4,6-trijodisophthal-säure-bis(1,3-dihydroxyisopropylamid)] here?
Answer: Its Wasserlöslichkeit is “spielend leicht wasserlöslich”.

Question: For `C[C@@H](Oc1c(I)c(C(=O)NC(CO)CO)c(I)c(C(=O)NC(CO)CO)c1I)C(=O)NC(CO)CO` [Beispiel 14, R(-)-5-(1(1,3-Dihydroxyisopropylaminocarbonyl)ethoxy)-2,4,6-trijodiso-phthalsäure-bis(1,3-dihydroxyisopropylamid)], which Wasserlöslichkeit is on record?
Answer: The Wasserlöslichkeit was “gering”.

Same assay, conditions: water, bei 20 °C; read-out: Wasserlöslichkeit

Question: For `CCOCCOCCOc1c(I)c(C(=O)NC(CO)CO)c(I)c(C(=O)NC(CO)CO)c1I` [Beispiel 1, 5-(3,6-Dioxaoctyl)oxy-2,4,6-trijodisophthalsäure-bis(1,3-dihydroxyiso-propylamid)], which solubility is on record?
Answer: Its solubility is 60 mg/mL (≈ 73 mM).

Question: With `O=C(NC(CO)CO)c1c(I)c(OCCCOCCOCCOCCOCCCO)c(I)c(C(=O)NC(CO)CO)c1I` [Beispiel 6, 5-(16-Hydroxy-4,7,10,13-tetraoxahexadecyl)oxy-2,4,6-trijod-isophthalsäure-bis(1,3-dihydroxyisopropylamid)] as the compound, how does the solubility read?
Answer: The solubility was over 1000 mg/mL.

Question: Which solubility does the source give for `O=C(COc1c(Br)c(C(=O)NC(CO)CO)c(Br)c(C(=O)NC(CO)CO)c1Br)NC(CO)CO` [Beispiel 12, 5-(1,3-Dihydroxyisopropylaminocarbonyl)methoxy-2,4,6-tribromisophthal-säure-bis(1,3-dihydroxyisopropylamid)] here?
Answer: The solubility was over 1000 mg/mL.

Question: With `CC(CO)(CO)NC(=O)COc1c(I)c(C(=O)NC(CO)CO)c(I)c(C(=O)NC(CO)CO)c1I` [Beispiel 15, 5-(1,3-Dihydroxy-2-methylisopropylaminocarbonyl)methoxy-2,4,6-trijodiso-phthalsäure-bis(1,3-dihydroxyisopropylamid)] as the compound, how does the solubility read?
Answer: Its solubility is 16 mg/mL (≈ 18.8 mM).

Question: For `CN(CC(O)CO)C(=O)COc1c(I)c(C(=O)NC(CO)CO)c(I)c(C(=O)NC(CO)CO)c1I` (centres unmarked) [Beispiel 19, 5-(N-Methyl-N-2,3-dihydroxypropyl)aminocarbonylmethoxy-2,4,6-trijodiso-phthalsäure-bis-(1,3-dihydroxyisopropylamid)], which solubility is on record?
Answer: Its solubility is over 1000 mg/mL.

Question: With `CC(Oc1c(I)c(C(=O)NC(CO)CO)c(I)c(C(=O)NC(CO)CO)c1I)C(=O)N(C)CC(O)CO` (centres unmarked) [Beispiel 20 R,S] as the compound, how does the solubility read?
Answer: The solubility was over 1000 mg/mL.

Question: Which solubility does the source give for `C[C@@H](Oc1c(I)c(C(=O)NC(CO)CO)c(I)c(C(=O)NC(CO)CO)c1I)C(=O)N(C)CC(O)CO` (some centres unmarked) [Beispiel 20 R] here?
Answer: The solubility was over 1000 mg/mL.

Question: Which solubility does the source give for `CN(C[C@H](O)[C@H](O)CO)C(=O)COc1c(I)c(C(=O)NC(CO)CO)c(I)c(C(=O)NC(CO)CO)c1I` [Beispiel 21, 5-(N-Methyl-N-2,3,4-trihydroxybutyl)aminocarbonylmethoxy-2,4,6-trijod-isophthalsäure-bis(1,3-dihydroxyisopropylamid)] here?
Answer: Its solubility is over 1000 mg/mL.

Question: Which solubility does the source give for `CN(C[C@H](O)[C@@H](O)[C@H](O)[C@H](O)CO)C(=O)COc1c(I)c(C(=O)NC(CO)CO)c(I)c(C(=O)NC(CO)CO)c1I` [Beispiel 27, 5-(N-Methyl-N-2,3,4,5,6-pentahydroxyhexyl)aminocarbonylmethoxy-2,4,6-trijodisophthalsäure-bis(1,3-dihydroxyisopropylamid)] here?
Answer: Its solubility is 1000 mg/mL (≈ 1060 mM).

Question: Which solubility does the source give for `CN(C[C@H](O)[C@@H](O)[C@H](O)[C@H](O)CO)C(=O)COc1c(Br)c(C(=O)NC(CO)CO)c(Br)c(C(=O)NC(CO)CO)c1Br` [Beispiel 29, 5(N-Methyl-N-2,3,4,5,6-pentahydroxyhexyl)aminocarbonylmethoxy-2,4,6-tribromisophthalsäure-bis(1,3-dihydroxyisopropylamid)] here?
Answer: The solubility was over 1000 mg/mL.

Question: Which solubility does the source give for `O=C(COc1c(I)c(C(=O)NCC(O)CO)c(I)c(C(=O)NCC(O)CO)c1I)NCC(O)CO` (centres unmarked) [Beispiel 32, 5-(2,3-Dihydroxypropylaminocarbonylmethoxy)-2,4,6-trijodisophthalsäure-bis(2,3-dihydroxypropylamid)] here?
Answer: The solubility was 10 mg/mL (≈ 11.9 mM).

Question: Which solubility does the source give for `CN(C[C@H](O)[C@@H](O)[C@H](O)[C@H](O)CO)C(=O)COc1c(I)c(C(=O)NCC(O)CO)c(I)c(C(=O)NCC(O)CO)c1I` (some centres unmarked) [Beispiel 37, 5-(N-Methyl-N-2,3,4,5,6-pentahydroxyhexyl)aminocarbonylmethoxy-2,4,6-trijodisophthalsäure-bis(2,3-dihydroxypropylamid)] here?
Answer: The solubility was over 1000 mg/mL.

Same assay, conditions: water, bei 25 °C; read-out: Wasserlöslichkeit

Question: With `CC(Oc1c(I)c(C(=O)NC(CO)CO)c(I)c(C(=O)NC(CO)CO)c1I)C(=O)N(CCO)CCO` (racemic) [Beispiel 18] as the compound, how does the solubility read?
Answer: The solubility was over 1000 mg/mL.

Question: With `C[C@@H](Oc1c(I)c(C(=O)NC(CO)CO)c(I)c(C(=O)NC(CO)CO)c1I)C(=O)NC(CO)(CO)CO` [Beispiel 16, R(-)-5(1(1,3-Dihydroxy-2-hydroxymethyl-isopropylaminocarbonyl)ethoxy)-2,4,6-trijodisophthalsäure-bis(1,3-dihydroxyisopropylamid)] as the compound, how does the solubility read?
Answer: Its solubility is 25 mg/mL (≈ 28.4 mM).

Question: With `O=C(NC(CO)CO)c1c(I)c(OCC(=O)N(CCO)CCO)c(I)c(C(=O)NC(CO)CO)c1I` [Beispiel 17] as the compound, how does the solubility read?
Answer: Its solubility is over 1000 mg/mL.

Question: With `C[C@@H](Oc1c(I)c(C(=O)NC(CO)CO)c(I)c(C(=O)NC(CO)CO)c1I)C(=O)N(C)C[C@H](O)[C@@H](O)[C@@H](O)CO` [Beispiel 26, R-5(1((N-Methyl-N-2,3,4,5-tetrahydroxypentyl)aminocarbonyl)ethoxy)-2,4,6-trijodisophthalsäure-bis(1,3-dihydroxyisopropylamid)] as the compound, how does the solubility read?
Answer: Its solubility is over 1000 mg/mL.

Question: For `CC(Oc1c(I)c(C(=O)NC(CO)CO)c(I)c(C(=O)NC(CO)CO)c1I)C(=O)N(C)C[C@H](O)[C@@H](O)[C@H](O)[C@H](O)CO` (some centres unmarked) [Beispiel 28 R,S], which solubility is on record?
Answer: Its solubility is over 1000 mg/mL.

Question: For `C[C@@H](Oc1c(I)c(C(=O)NC(CO)CO)c(I)c(C(=O)NC(CO)CO)c1I)C(=O)N(C)C[C@H](O)[C@@H](O)[C@H](O)[C@H](O)CO` [Beispiel 28 R], which solubility is on record?
Answer: The solubility was over 1000 mg/mL.

Question: With `O=C(COc1c(I)c(C(=O)NCC(O)CO)c(I)c(C(=O)NCC(O)CO)c1I)NCCO` (centres unmarked) [Beispiel 31, 5-(2-Hydroxyethylaminocarbonylmethoxy)-2,4,6-trijodisophthalsäure-bis(2,3-dihydroxypropylamid)] as the compound, how does the solubility read?
Answer: Its solubility is 12 mg/mL (≈ 14.9 mM).

Question: Which solubility does the source give for `CC(CO)(CO)NC(=O)COc1c(I)c(C(=O)NCC(O)CO)c(I)c(C(=O)NCC(O)CO)c1I` (centres unmarked) [Beispiel 33, 5-(1,3-Dihydroxy-2-methylisopropylaminocarbonylmethoxy)-2,4,6-trijod-isophthalsäure-bis(2,3-dihydroxypropylamid)] here?
Answer: Its solubility is over 1000 mg/mL.

Question: With `CN(CC(O)CO)C(=O)COc1c(I)c(C(=O)NCC(O)CO)c(I)c(C(=O)NCC(O)CO)c1I` (centres unmarked) [Beispiel 34, 5-(N-Methyl-N-2,3-dihydroxypropyl)aminocarbonylmethoxy-2,4,6-trijod-isophthalsäure-bis(2,3-dihydroxypropylamid)] as the compound, how does the solubility read?
Answer: The solubility was over 1000 mg/mL.

Question: For `CN(C[C@H](O)[C@H](O)CO)C(=O)COc1c(I)c(C(=O)NCC(O)CO)c(I)c(C(=O)NCC(O)CO)c1I` (some centres unmarked) [Beispiel 35, 5-(N-Methyl-N-2,3,4-trihydroxybutyl)aminocarbonylmethoxy-2,4,6-trijod-isophthalsäure-bis(2,3-dihydroxypropylamid)], which solubility is on record?
Answer: Its solubility is over 1000 mg/mL.

Question: For `CN(C[C@H](O)[C@@H](O)[C@@H](O)CO)C(=O)COc1c(I)c(C(=O)NCC(O)CO)c(I)c(C(=O)NCC(O)CO)c1I` (some centres unmarked) [Beispiel 36, 5-(N-Methyl-N-2,3,4,5-tetrahydroxypentyl)aminocarbonylmethoxy-2,4,6-trijodisophthalsäure-bis(2,3-dihydroxypropylamid)], which solubility is on record?
Answer: Its solubility is over 1000 mg/mL.

Same assay, conditions: water, bei 100 °C; read-out: Wasserlöslichkeit

Question: Which solubility does the source give for `C[C@@H](Oc1c(I)c(C(=O)NC(CO)CO)c(I)c(C(=O)NC(CO)CO)c1I)C(=O)NC(CO)(CO)CO` [Beispiel 16, R(-)-5(1(1,3-Dihydroxy-2-hydroxymethyl-isopropylaminocarbonyl)ethoxy)-2,4,6-trijodisophthalsäure-bis(1,3-dihydroxyisopropylamid)] here?
Answer: The solubility was 1000 mg/mL (≈ 1130 mM).

Same assay, conditions: water, bei Siedetemperatur; read-out: Wasserlöslichkeit

Question: With `CCOCCOCCOc1c(I)c(C(=O)NC(CO)CO)c(I)c(C(=O)NC(CO)CO)c1I` [Beispiel 1, 5-(3,6-Dioxaoctyl)oxy-2,4,6-trijodisophthalsäure-bis(1,3-dihydroxyiso-propylamid)] as the compound, how does the solubility read?
Answer: The solubility was 1000 mg/mL (≈ 1220 mM).

Question: With `CNC(=O)COc1c(I)c(C(=O)NC(CO)CO)c(I)c(C(=O)NC(CO)CO)c1I` [Beispiel 11, 5-Methylaminocarbonylmethoxy-2,4,6-trijod-isophthalsäure-bis(1,3-di-hydroxyisopropylamid)] as the compound, how does the solubility read?
Answer: The solubility was 100 mg/mL (≈ 129 mM).

Question: For `CC(CO)(CO)NC(=O)COc1c(I)c(C(=O)NC(CO)CO)c(I)c(C(=O)NC(CO)CO)c1I` [Beispiel 15, 5-(1,3-Dihydroxy-2-methylisopropylaminocarbonyl)methoxy-2,4,6-trijodiso-phthalsäure-bis(1,3-dihydroxyisopropylamid)], which solubility is on record?
Answer: Its solubility is 1000 mg/mL (≈ 1170 mM).

Question: Which solubility does the source give for `CNC(=O)COc1c(I)c(C(=O)NCC(O)CO)c(I)c(C(=O)NCC(O)CO)c1I` (centres unmarked) [Beispiel 30, 5-Methylaminocarbonylmethoxy-2,4,6-trijodisophthalsäure-bis(2,3-di-hydroxypropylamid)] here?
Answer: Its solubility is 20 mg/mL (≈ 25.7 mM).

Question: For `O=C(COc1c(I)c(C(=O)NCC(O)CO)c(I)c(C(=O)NCC(O)CO)c1I)NCCO` (centres unmarked) [Beispiel 31, 5-(2-Hydroxyethylaminocarbonylmethoxy)-2,4,6-trijodisophthalsäure-bis(2,3-dihydroxypropylamid)], which solubility is on record?
Answer: The solubility was 130 mg/mL (≈ 161 mM).

Question: With `O=C(COc1c(I)c(C(=O)NCC(O)CO)c(I)c(C(=O)NCC(O)CO)c1I)NCC(O)CO` (centres unmarked) [Beispiel 32, 5-(2,3-Dihydroxypropylaminocarbonylmethoxy)-2,4,6-trijodisophthalsäure-bis(2,3-dihydroxypropylamid)] as the compound, how does the solubility read?
Answer: The solubility was 100 mg/mL (≈ 119 mM).

Same assay, conditions: water, no temperature stated; read-out: Wasserlöslichkeit

Question: Which solubility does the source give for `O=C(NC(CO)CO)c1c(I)c(OCC(=O)N(CCO)CC(O)CO)c(I)c(C(=O)NC(CO)CO)c1I` (centres unmarked) [Beispiel 23, 5-(N-2-Hydroxyethyl-N-2,3-dihydroxypropyl)aminocarbonylmethoxy-2,4,6-trijodisophthalsäure-bis(1,3-dihydroxyisopropylamid)] here?
Answer: Its solubility is over 1000 mg/mL.

Question: Which solubility does the source give for `C[C@@H](Oc1c(I)c(C(=O)NC(CO)CO)c(I)c(C(=O)NC(CO)CO)c1I)C(=O)N(CCO)CC(O)CO` (some centres unmarked) [Beispiel 24, R-5(1((N-2-Hydroxyethyl-N-2,3-dihydroxypropyl)aminocarbonyl)ethoxy)-2,4,6-trijodisophthalsäure-bis(1,3-dihydroxyisopropylamid)] here?
Answer: Its solubility is over 1000 mg/mL.

Question: For `CN(C[C@@H](O)[C@H](O)[C@H](O)CO)C(=O)COc1c(I)c(C(=O)NC(CO)CO)c(I)c(C(=O)NC(CO)CO)c1I` [Beispiel 25, 5-(N-Methyl-N-2,3,4,5-tetrahydroxypentyl)aminocarbonylmethoxy-2,4,6-trijodisophthalsäure-bis(1,3-dihydroxyisopropylamid)], which solubility is on record?
Answer: Its solubility is over 1000 mg/mL.
